Experimental data published in the NIST ThermoML archive (doi:10.1021/je700152c).

Assay: molar heat capacity at saturation pressure; xn = mol fraction of the nth substance listed

CCCCn1cc[n+](C)c1.Cc1ccc(S(=O)(=O)[O-])cc1 [1-butyl-3-methylimidazolium tosylate] + O
Settings	molar heat capacity [J/K/mol]
187.71 K, Metastable crystal, x1 = 0.83	257.58
188.37 K, Crystal, x1 = 0.37	129.48
189.01 K, Crystal, x1 = 0.3	108.8
189.44 K, Crystal, x1 = 0.83	237.24
189.61 K, Metastable crystal, x1 = 0.83	259.14
191.25 K, Crystal, x1 = 0.37	131.12
191.41 K, Crystal, x1 = 0.83	240.11
191.51 K, Metastable crystal, x1 = 0.83	260.97
191.66 K, Crystal, x1 = 0.3	109.86
193.36 K, Crystal, x1 = 0.83	244.28
193.41 K, Metastable crystal, x1 = 0.83	262.79
194.12 K, Crystal, x1 = 0.37	132.64
194.31 K, Crystal, x1 = 0.3	111.02
195.3 K, Crystal, x1 = 0.83	250.02
195.31 K, Metastable crystal, x1 = 0.83	264.88
196.95 K, Crystal, x1 = 0.3	112.29
196.98 K, Crystal, x1 = 0.37	134.15
197.21 K, Metastable crystal, x1 = 0.83	268.01
197.23 K, Crystal, x1 = 0.83	254.97
199.09 K, Metastable crystal, x1 = 0.83	272.44
199.14 K, Crystal, x1 = 0.83	258.88
199.58 K, Crystal, x1 = 0.3	113.66
199.84 K, Crystal, x1 = 0.37	135.92
201 K, Metastable crystal, x1 = 0.83	280.52
201.17 K, Crystal, x1 = 0.83	262.53
201.54 K, Crystal, x1 = 0.3	114.83
201.97 K, Crystal, x1 = 0.37	137.43
202.83 K, Crystal, x1 = 0.3	115.46
202.96 K, Metastable crystal, x1 = 0.83	287.56
203.32 K, Crystal, x1 = 0.83	264.88
203.36 K, Crystal, x1 = 0.37	138.57
204.12 K, Crystal, x1 = 0.3	115.99
204.75 K, Crystal, x1 = 0.37	139.08
204.92 K, Metastable crystal, x1 = 0.83	289.38
205.4 K, Crystal, x1 = 0.3	116.63
205.47 K, Crystal, x1 = 0.83	266.7
206.15 K, Crystal, x1 = 0.37	140.46
206.69 K, Crystal, x1 = 0.3	117.05
206.89 K, Metastable crystal, x1 = 0.83	290.69
207.55 K, Crystal, x1 = 0.37	141.22
207.62 K, Crystal, x1 = 0.83	268.53
207.98 K, Crystal, x1 = 0.3	117.58
208.85 K, Metastable crystal, x1 = 0.83	291.99
208.96 K, Crystal, x1 = 0.37	142.1
209.26 K, Crystal, x1 = 0.3	118
209.77 K, Crystal, x1 = 0.83	270.61
210.37 K, Crystal, x1 = 0.37	142.86
210.55 K, Crystal, x1 = 0.3	118.74
210.81 K, Metastable crystal, x1 = 0.83	293.03
211.79 K, Crystal, x1 = 0.37	143.62
211.84 K, Crystal, x1 = 0.3	119.27
211.92 K, Crystal, x1 = 0.83	272.7
212.77 K, Metastable crystal, x1 = 0.83	294.34
213.13 K, Crystal, x1 = 0.3	120.22
213.22 K, Crystal, x1 = 0.37	144.25
214.07 K, Crystal, x1 = 0.83	274.78
214.41 K, Crystal, x1 = 0.3	121.91
214.66 K, Crystal, x1 = 0.37	145.26
214.74 K, Metastable crystal, x1 = 0.83	295.64
215.69 K, Crystal, x1 = 0.3	123.6
216.09 K, Crystal, x1 = 0.37	146.27
216.21 K, Crystal, x1 = 0.83	276.87
216.7 K, Metastable crystal, x1 = 0.83	296.68
216.97 K, Crystal, x1 = 0.3	125.51
217.52 K, Crystal, x1 = 0.37	148.16
218.24 K, Crystal, x1 = 0.3	127.73
218.36 K, Crystal, x1 = 0.83	278.69
218.66 K, Metastable crystal, x1 = 0.83	297.99
218.93 K, Crystal, x1 = 0.37	150.81
219.5 K, Crystal, x1 = 0.3	130.37
220.33 K, Crystal, x1 = 0.37	154.98
220.5 K, Crystal, x1 = 0.83	280.78
220.62 K, Metastable crystal, x1 = 0.83	299.29
220.76 K, Crystal, x1 = 0.3	133.97
221.7 K, Crystal, x1 = 0.37	161.54
222 K, Crystal, x1 = 0.3	138.72
222.58 K, Metastable crystal, x1 = 0.83	300.59
222.65 K, Crystal, x1 = 0.83	282.87
223.04 K, Crystal, x1 = 0.37	170.5
223.23 K, Crystal, x1 = 0.3	144.64
224.35 K, Crystal, x1 = 0.37	182.11
224.44 K, Crystal, x1 = 0.3	151.62
224.54 K, Metastable crystal, x1 = 0.83	301.9
224.8 K, Crystal, x1 = 0.83	284.95
225.63 K, Crystal, x1 = 0.3	159.55
225.63 K, Crystal, x1 = 0.37	195.24
226.5 K, Metastable crystal, x1 = 0.83	303.2
226.79 K, Crystal, x1 = 0.3	169.18
226.88 K, Crystal, x1 = 0.37	210.13
226.96 K, Crystal, x1 = 0.83	286.78
227.92 K, Crystal, x1 = 0.3	180.91
228.08 K, Crystal, x1 = 0.37	225.52
228.46 K, Metastable crystal, x1 = 0.83	304.76
229.02 K, Crystal, x1 = 0.3	196.03
229.14 K, Crystal, x1 = 0.83	288.6
229.24 K, Crystal, x1 = 0.37	246.35
230.06 K, Crystal, x1 = 0.3	216.44
230.36 K, Crystal, x1 = 0.37	271.97
230.42 K, Metastable crystal, x1 = 0.83	306.33
231.05 K, Crystal, x1 = 0.3	243.4
231.35 K, Crystal, x1 = 0.83	290.43
231.41 K, Crystal, x1 = 0.37	306.67
231.97 K, Crystal, x1 = 0.3	279.14
232.38 K, Metastable crystal, x1 = 0.83	307.89
232.4 K, Crystal, x1 = 0.37	350.72
232.82 K, Crystal, x1 = 0.3	325.66
233.32 K, Crystal, x1 = 0.37	386.68
233.59 K, Crystal, x1 = 0.3	384.24
233.59 K, Crystal, x1 = 0.83	291.21
234.25 K, Crystal, x1 = 0.37	311.22
234.29 K, Crystal, x1 = 0.3	455.08
234.34 K, Metastable crystal, x1 = 0.83	309.46
234.92 K, Crystal, x1 = 0.3	526.56
235.39 K, Crystal, x1 = 0.37	181.61
235.5 K, Crystal, x1 = 0.3	534.91
235.86 K, Crystal, x1 = 0.83	290.16
236.15 K, Crystal, x1 = 0.3	325.13
236.31 K, Metastable crystal, x1 = 0.83	310.24
236.7 K, Crystal, x1 = 0.37	181.73
237.09 K, Crystal, x1 = 0.3	171.82
238 K, Crystal, x1 = 0.37	183.25
238.22 K, Crystal, x1 = 0.83	290.95
238.25 K, Crystal, x1 = 0.3	170.34
238.27 K, Metastable crystal, x1 = 0.83	311.54
239.3 K, Crystal, x1 = 0.37	184.76
239.4 K, Crystal, x1 = 0.3	171.4
240.23 K, Metastable crystal, x1 = 0.83	313.11
240.46 K, Crystal, x1 = 0.83	293.81
240.56 K, Crystal, x1 = 0.3	172.98
240.6 K, Crystal, x1 = 0.37	186.27
241.71 K, Crystal, x1 = 0.3	174.78
241.9 K, Crystal, x1 = 0.37	188.17
242.19 K, Metastable crystal, x1 = 0.83	315.19
242.68 K, Crystal, x1 = 0.83	297.2
242.86 K, Crystal, x1 = 0.3	176.47
243.19 K, Crystal, x1 = 0.37	189.93
244.01 K, Crystal, x1 = 0.3	178.27
244.14 K, Metastable crystal, x1 = 0.83	317.28
244.48 K, Crystal, x1 = 0.37	191.7
244.87 K, Crystal, x1 = 0.83	300.59
245.15 K, Crystal, x1 = 0.3	179.96
245.76 K, Crystal, x1 = 0.37	193.72
246.08 K, Metastable crystal, x1 = 0.83	319.62
